From US9796711B2, “Substituted pyrazolo[3,4-b]pyridin-6-carboxylic acids and method of use” (AbbVie S.àr.l., priority 2015, dated 2017) come the findings set out here.

Assay [1] deals with T1, ΔF508-CFTR (Homo sapiens, UniProt P13569, DEL508-508).
T1 construct: host or cells: CFBE41o-, doxycycline-inducible
The assay can be described thus: CFTR cell surface levels using HRP-tagged ΔF508-CFTR expressing CFBE cells, in the presence of a co-corrector. In kind it is cell-based. The following applies: HRP-tagged ΔF508-CFTR expressing CFBE cells, in the presence of 3 μM co-corrector; for EC50: read-out: EC50. The procedure, abridged: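 Cells were seeded with 0.5 μg/mL doxycycline and held 68 h at 37 °C. Test compounds plus 3 μM co-corrector (final 0.1% DMSO) were then added for 20 h at 33 °C. Washed cells received HRP substrate, and luminescence was normalized between DMSO and 3 μM co-corrector controls.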

The target in assay [2] is T1, ΔF508-CFTR. The assay can be described thus: CFTR cell surface levels using HRP-tagged ΔF508-CFTR expressing CFBE cells, intrinsic corrector capacity. In kind it is cell-based. To be noted: for EC50: read-out: EC50. The procedure, abridged: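 Here the cells express ΔF508-CFTR with horseradish peroxidase inserted in extracellular loop 4, so only rescued channel at the surface gives luminescent signal. Compounds act on their own, 20 h at the reduced temperature of 33 °C; values are percent activity relative to DMSO and a 3 μM corrector.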

Where [3] appears, read: HRP-tagged ΔF508-CFTR CFBE41o- cells, compounds alone (intrinsic corrector capacity), 20 hours at 33° C., positive control 3 μM corrector.
[4] abbreviates: HRP-tagged ΔF508-CFTR CFBE41o- cells, compounds alone (intrinsic corrector capacity), 20 hours at 33° C.
The mark [5] stands for this setting: HRP-tagged ΔF508-CFTR expressing CFBE cells, intrinsic corrector capacity (no co-corrector), 33° C., 20 hours.

Structures are written as SMILES. Some results are limits rather than exact numbers.

T1 sequence (P13569 with tags, fused parts or gaps DEL508-508): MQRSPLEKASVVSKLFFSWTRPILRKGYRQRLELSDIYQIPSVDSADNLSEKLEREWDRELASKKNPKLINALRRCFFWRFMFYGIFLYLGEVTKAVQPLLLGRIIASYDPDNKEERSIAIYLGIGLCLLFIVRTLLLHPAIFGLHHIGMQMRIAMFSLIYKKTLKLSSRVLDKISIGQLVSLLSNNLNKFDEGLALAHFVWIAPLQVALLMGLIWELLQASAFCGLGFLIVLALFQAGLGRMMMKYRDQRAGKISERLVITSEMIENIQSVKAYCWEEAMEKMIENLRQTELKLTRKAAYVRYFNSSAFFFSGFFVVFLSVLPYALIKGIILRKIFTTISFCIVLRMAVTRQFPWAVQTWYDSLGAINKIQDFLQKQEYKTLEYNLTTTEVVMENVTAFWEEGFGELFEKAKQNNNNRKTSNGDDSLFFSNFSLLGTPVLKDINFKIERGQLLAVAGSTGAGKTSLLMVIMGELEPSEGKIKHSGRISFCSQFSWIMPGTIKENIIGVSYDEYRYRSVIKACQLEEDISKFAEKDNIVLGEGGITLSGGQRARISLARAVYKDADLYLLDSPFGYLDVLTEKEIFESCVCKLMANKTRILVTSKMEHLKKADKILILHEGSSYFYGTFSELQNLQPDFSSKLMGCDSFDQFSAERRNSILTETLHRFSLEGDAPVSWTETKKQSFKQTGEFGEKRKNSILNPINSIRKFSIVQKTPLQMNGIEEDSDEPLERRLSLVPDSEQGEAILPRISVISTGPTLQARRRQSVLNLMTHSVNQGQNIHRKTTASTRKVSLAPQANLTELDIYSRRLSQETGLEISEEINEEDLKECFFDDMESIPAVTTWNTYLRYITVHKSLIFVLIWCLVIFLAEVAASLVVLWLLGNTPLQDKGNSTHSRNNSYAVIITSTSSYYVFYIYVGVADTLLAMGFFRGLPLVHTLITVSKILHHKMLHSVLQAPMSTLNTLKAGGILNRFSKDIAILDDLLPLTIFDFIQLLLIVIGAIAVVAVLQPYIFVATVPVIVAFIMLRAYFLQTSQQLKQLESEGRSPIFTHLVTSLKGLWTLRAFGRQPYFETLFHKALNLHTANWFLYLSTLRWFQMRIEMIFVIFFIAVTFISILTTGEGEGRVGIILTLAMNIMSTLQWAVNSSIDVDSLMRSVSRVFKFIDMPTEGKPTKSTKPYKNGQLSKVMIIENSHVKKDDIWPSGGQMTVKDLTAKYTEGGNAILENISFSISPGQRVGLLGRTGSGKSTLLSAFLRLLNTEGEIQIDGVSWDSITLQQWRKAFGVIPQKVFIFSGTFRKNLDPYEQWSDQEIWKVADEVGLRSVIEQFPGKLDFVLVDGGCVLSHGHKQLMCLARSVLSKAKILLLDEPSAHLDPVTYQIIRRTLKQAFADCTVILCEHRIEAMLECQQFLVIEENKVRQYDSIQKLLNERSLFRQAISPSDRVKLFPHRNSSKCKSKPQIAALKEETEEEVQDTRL

For `O=C(O)c1cc(-c2ccc(N3CCOCC3)cc2)c2c(C3CCC3)nn(-c3cccc(C(F)(F)F)c3)c2n1` [compound 354, 3-cyclobutyl-4-[4-(morpholin-4-yl)phenyl]-1-[3-(trifluoromethyl)phenyl]-1H-pyrazolo[3,4-b]pyridine-6-carboxylic acid], the “% Activation” value in assay [1] turned out to be 429.9%; in assay [2] (setting [3]) it was 212.07%. Besides, the EC50 – broadly, the concentration that produces a half-maximal response – in assay [1] was 0.323 µM; in assay [2] (setting [4]), 0.45 µM.
On to `O=C1CC[C@H](Oc2cc(C(=O)O)nc3c2c(C2CCC2)nn3-c2ccccc2)CN1` [compound 619, 3-cyclobutyl-4-{[(3S)-6-oxopiperidin-3-yl]oxy}-1-phenyl-1H-pyrazolo[3,4-b]pyridine-6-carboxylic acid], for which, in assay [1], the “% Activation” value came to 134.1% and the EC50 is more than 10 µM. Besides, in assay [2] (setting [5]), the “% Activation” value was determined as 7.484% and the EC50 is more than 10 µM.
Turning to `O=C(O)c1cc(N2CCC(COCc3ccccc3)CC2)c2c(C3CCC3)nn(-c3ccccc3)c2n1` [compound 427, 4-{4-[(benzyloxy)methyl]piperidin-1-yl}-3-cyclobutyl-1-phenyl-1H-pyrazolo[3,4-b]pyridine-6-carboxylic acid], in assay [1], the “% Activation” value stood at 418.9% and the EC50 is 0.577 µM. Besides, in assay [2] (setting [5]), the “% Activation” value is 200.4% and the EC50 amounted to 0.663 µM.
The matching figures for `CC(C)c1nn(-c2ccc(F)cc2)c2nc(C(=O)O)cc(N3CCN(CCOCCO)CC3)c12` [compound 778, 1-(4-fluorophenyl)-4-{4-[2-(2-hydroxyethoxy)ethyl]piperazin-1-yl}-3-(propan-2-yl)-1H-pyrazolo[3,4-b]pyridine-6-carboxylic acid]: 149%, 1.67 µM, 9.442% and 5 µM.
The matching figures for `COCC1CN(c2cc(C(=O)O)nc3c2c(C2CCC2)nn3-c2ccccc2)C1` [compound 418, 3-cyclobutyl-4-[3-(methoxymethyl)azetidin-1-yl]-1-phenyl-1H-pyrazolo[3,4-b]pyridine-6-carboxylic acid]: 342.25%, 0.598 µM, 144.95% and 1.22 µM.
With `CC(C)(O)c1nn(-c2ccccc2)c2nc(C(=O)O)cc(-c3ccc(N4CCOCC4)cc3)c12` [compound 63, 3-(2-hydroxypropan-2-yl)-4-[4-(morpholin-4-yl)phenyl]-1-phenyl-1H-pyrazolo[3,4-b]pyridine-6-carboxylic acid], the “% Activation” value worked out at 294.35% in assay [1] and 108.18% in assay [2] (setting [3]). Further, the EC50 in assay [1] and in assay [2] (setting [4]) was 3.34 µM each time.
In the case of `O=C(O)c1cc(N2CCC(O)(CCO)CC2)c2c(C3CCC3)nn(-c3ccccc3)c2n1` [compound 546, 3-cyclobutyl-4-[4-hydroxy-4-(2-hydroxyethyl)piperidin-1-yl]-1-phenyl-1H-pyrazolo[3,4-b]pyridine-6-carboxylic acid], the entries for the “% Activation” value in assay [1] and in assay [2] (setting [5]) were 246.6% and 87.52%, respectively. The EC50 in assay [1] and in assay [2] (setting [5]) was 3.33 µM in each case.
As to `Cc1nn(-c2ccccc2)c2nc(C(=O)O)cc(N3CCOCC3)c12` [compound 118, 3-methyl-4-(morpholin-4-yl)-1-phenyl-1H-pyrazolo[3,4-b]pyridine-6-carboxylic acid], the “% Activation” value in assay [1] amounted to 165.25%; in assay [2] (setting [3]), 26.575%. Also, the figures for the 50% effective concentration (EC50) in assay [1] and in assay [2] (setting [4]) were 3.34 µM and 6.67 µM, respectively.
The like results for `Cc1nn(-c2ccccc2)c2nc(C(=O)O)cc(N3CC4CNCCN4C3=O)c12` (centres unmarked) [compound 290, 3-methyl-4-(3-oxohexahydroimidazo[1,5-a]pyrazin-2(3H)-yl)-1-phenyl-1H-pyrazolo[3,4-b]pyridine-6-carboxylic acid] were, in that order, 127.35%, 12.145%, 7.5 µM and 7.5 µM.
With `O=C(O)c1cc(OC2CC3(COC3)C2)c2c(C3CCC3)nn(-c3ccccc3)c2n1` [compound 495, 3-cyclobutyl-4-[(2-oxaspiro[3.3]heptan-6-yl)oxy]-1-phenyl-1H-pyrazolo[3,4-b]pyridine-6-carboxylic acid], the figures for the “% Activation” value in assay [1] and in assay [2] (setting [5]) were 235.15% and 95.96%, respectively. The results for the EC50 in assay [1] and in assay [2] (setting [5]) were 0.307 µM and 1.11 µM, respectively.
The matching figures for `N#CCCN1CCN(c2cc(C(=O)O)nc3c2c(C2CCC2)nn3-c2ccccc2)CC1` [compound 561, 4-[4-(2-cyanoethyl)piperazin-1-yl]-3-cyclobutyl-1-phenyl-1H-pyrazolo[3,4-b]pyridine-6-carboxylic acid]: 348%, 174.8%, 0.427 µM and 1.59 µM.
As for `CC(C)c1nn(C2CCCCC2)c2nc(C(=O)O)cc(-c3cnc(N(C)C4CCOCC4)nc3)c12` [compound 236, 1-cyclohexyl-4-{2-[methyl(oxan-4-yl)amino]pyrimidin-5-yl}-3-(propan-2-yl)-1H-pyrazolo[3,4-b]pyridine-6-carboxylic acid], the “% Activation” value in assay [1] is given as 423.62%; in assay [2] (setting [3]) it was 213.68%. In addition, the EC50 amounted to 0.638 µM in assay [1] and 0.656 µM in assay [2] (setting [4]).
As for `O=C(O)c1cc(N2CCC(N3CC4CC3CO4)CC2)c2c(C3CCC3)nn(-c3ccc(F)cc3)c2n1` (centres unmarked) [compound 852, 3-cyclobutyl-1-(4-fluorophenyl)-4-[4-(2-oxa-5-azabicyclo[2.2.1]heptan-5-yl)piperidin-1-yl]-1H-pyrazolo[3,4-b]pyridine-6-carboxylic acid], in assay [1], the “% Activation” value came to 391.4% and the EC50 was found to be 3.33 µM. In assay [2] (setting [5]), the “% Activation” value came to 120.6% and the concentration giving a half-maximal response (EC50) is 1.71 µM.
The like results for `CC(C)N1CCN(C2CCN(c3cc(C(=O)O)nc4c3c(C3CCC3)nn4C3CCCCC3)CC2)CC1` [compound 880, 3-cyclobutyl-1-cyclohexyl-4-{4-[4-(propan-2-yl)piperazin-1-yl]piperidin-1-yl}-1H-pyrazolo[3,4-b]pyridine-6-carboxylic acid] were, in that order, 446.95%, 0.693 µM, 259.5% and 0.169 µM.
As for `CC(C)c1nn(-c2ccc(F)cc2F)c2nc(C(=O)O)cc(-c3cnc(N4CCC(C#N)CC4)nc3)c12` [compound 325, 4-[2-(4-cyanopiperidin-1-yl)pyrimidin-5-yl]-1-(2,4-difluorophenyl)-3-(propan-2-yl)-1H-pyrazolo[3,4-b]pyridine-6-carboxylic acid], the “% Activation” value is on record as 389.75% in assay [1] and 177.1% in assay [2] (setting [3]). Moreover, the results for the EC50 in assay [1] and in assay [2] (setting [4]) were 0.779 µM and 1.2 µM, respectively.
Take `O=C(O)c1cc(N2CCC(C(F)(F)F)C2)c2c(C3CCC3)nn(-c3ccccc3)c2n1` (centres unmarked) [compound 442, 3-cyclobutyl-1-phenyl-4-[3-(trifluoromethyl)pyrrolidin-1-yl]-1H-pyrazolo[3,4-b]pyridine-6-carboxylic acid]: in assay [1], the “% Activation” value was found to be 321.95% and the EC50 was 0.655 µM. Besides, in assay [2] (setting [5]), the “% Activation” value stood at 137.7% and the EC50 was found to be 1.07 µM.
Turning to `Cc1nn(-c2ccccc2)c2nc(C(=O)O)cc(-c3ccc(N4CCN(CC#N)CC4)cc3)c12` [compound 98, 4-{4-[4-(cyanomethyl)piperazin-1-yl]phenyl}-3-methyl-1-phenyl-1H-pyrazolo[3,4-b]pyridine-6-carboxylic acid], the figures for the “% Activation” value in assay [1] and in assay [2] (setting [3]) were 350.65% and 165.8%, respectively. The EC50 in assay [1] worked out at 0.834 µM; in assay [2] (setting [4]), 1.15 µM.
Turning to `COCC1(OC)CCN(c2cc(C(=O)O)nc3c2c(C2CCC2)nn3-c2ccccc2)CC1` [compound 526, 3-cyclobutyl-4-[4-methoxy-4-(methoxymethyl)piperidin-1-yl]-1-phenyl-1H-pyrazolo[3,4-b]pyridine-6-carboxylic acid], in assay [1], the “% Activation” value was 284.5% and the EC50 turned out to be 0.37 µM. Besides, in assay [2] (setting [5]), the “% Activation” value was 97.7% and the EC50 is 0.406 µM.
The matching figures for `C[C@H]1C[C@H](c2nn(-c3ccccc3)c3nc(C(=O)O)cc(-c4ccc(N5CCC(C#N)CC5)nc4)c32)C1` [compound 551, 4-[6-(4-cyanopiperidin-1-yl)pyridin-3-yl]-3-(trans-3-methylcyclobutyl)-1-phenyl-1H-pyrazolo[3,4-b]pyridine-6-carboxylic acid]: 424.35%, 0.0872 µM, 223.1% and 0.37 µM.
As to `CC(C)c1nn(-c2cccc(N(C)C)c2)c2nc(C(=O)O)cc(N3CCC(CO)CC3)c12` [compound 331, 1-[3-(dimethylamino)phenyl]-4-[4-(hydroxymethyl)piperidin-1-yl]-3-(propan-2-yl)-1H-pyrazolo[3,4-b]pyridine-6-carboxylic acid], the figures for the “% Activation” value in assay [1] and in assay [2] (setting [3]) were 513.57% and 311.73%, respectively. Moreover, the EC50 in assay [1] was determined as 0.39 µM; in assay [2] (setting [4]), 1.05 µM.
